From patent US10227327B2, “Inhibitors of metallo-beta-lactamase (MBL) comprising a zinc chelating moiety” (Universitetet I Oslo, priority 2013, dated 2019)

Columns and labels:
Assay in all cases: Microbroth dilution, meropenem MIC with/without compound
Type in all cases: cell-based
E. coli 50639799 (VIM-1) = settings: compound at 125 μM; 50639799 E. coli VIM-1
Description: (§1) General Protocol for Microbroth Dilution Method for Evaluating Antibacterial Activity of Compounds or Synergistic Effect of Compound-Antibiotic Combination
(§2) • Plate bacterial strain(s) on appropriate media: • Gram-negative bacteria with ESBLs or carbapenemases: green agar plates with 100 mg/L ampicillin • Gram-negative bacteria without β-lactamases: green agar plates • Gram-positive bacteria (Staphylococci and Enterococci): blood agar plates • Incubate o.n. at 37° C. Day 2: Prepare the Bacterial Inoculum: • Prepare a 0.5 McFarland suspension of bacteria in 0.85% NaCl. (Should be used within 15 min of preparation). • Dilute the 0.5 McFarland suspension 1:100 into MH broth. Check the inoculum by diluting the prepared bacterial suspension 1:100 (10 μl bacterial suspension+990 μl 0.85% NaCl). Plate 10 μl of the dilution on MH agar plates (×2). Incubate o.n. at 37° C., count the colonies and calculate the final CFU/ml inoculum in the plate by multiplying the average number of colonies with 10000 and divide by 2. The final inoculum should be between 3-7×10^5 CFU/ml. • Add 50 μl of the prepared bacterial suspension to each well in the microtiter plate except negative growth control. Preparation of Compounds/Antibiotics • Calculate the desired concentration-range and volume of the compounds/antibiotics in the assay. […] Dilute the stock solution in MH broth. Make subsequent 2-fold dilutions in MH broth of the desired concentrations if a concentration range is to be tested (remember the extra dilution factor in the assay plate). Always include extra volume for pipetting. Take into consideration stock solutions that are made in buffers that have an effect on bacterial growth (e.g. DMSO). Assay: • Determining the MIC of compounds/antibiotics alone: • Add 25 μl of each concentration of compound/antibiotic to row 2-11 (highest concentration in row 2) • Add 25 μl MH broth to row 2-11 • Add 50 μl MH broth to row 12 (positive control) • Add 100 μl MH broth to row 1 • Add 50 μl bacterial suspension to row 2-12. • Determining the MIC of antibiotics+compounds: • Add 25 μl of each concentration of antibiotic to row 2-11 (highest concentration in row 2) • Add 25 μl of compound to row 2-11 • Add 50 μl MH broth to row 12 (positive control) • Add 100 μl MH broth to row 1 • Add 50 μl bacterial suspension to row 2-12. • Incubate the plate for 20 hrs at 37° C. and determine the MIC in the presence and absence of inhibitor.

[1] = tested on: P. aeruginosa K34-7 (VIM-2); settings: compound at 125 μM; K34-7 P. aeruginosa VIM-2
Description: as §1, §2

[2] = tested on: P. aeruginosa 50692172 (NDM-1); settings: compound at 125 μM; 50692172 P. aeruginosa NDM-1
Description: as §1, §2

E. coli K71-77 (NDM-1) = settings: compound at 125 μM; K71-77 E. coli NDM-1
Description: as §1, §2

[3] = tested on: K. pneumoniae K66-45 (NDM-1); settings: compound at 125 μM; K66-45 K. pneumoniae NDM-1
Description: as §1, §2

[4] = tested on: K. pneumoniae A3-81 (VIM-1); settings: compound at 125 μM; A3-81 K. pneumoniae VIM-1
Description: as §1, §2

C[C@H](CS)C(=O)N1CCC[C@H]1C(=O)O [Captopril]
Meropenem MIC (mg/L) in presence of compound (E. coli 50639799 (VIM-1)): 16 mg/L | Meropenem MIC (mg/L) in presence of compound [1]: 32 mg/L | Meropenem MIC (mg/L) in presence of compound [2]: 32 to 64 mg/L | Meropenem MIC (mg/L) in presence of compound (E. coli K71-77 (NDM-1)): 2 to 4 mg/L | Meropenem MIC (mg/L) in presence of compound [3]: 64 mg/L | Meropenem MIC (mg/L) in presence of compound [4]: 64 to 128 mg/L
